Data taken from patent publication US8466286B2, “SMMR (small molecule metabolite reporters) for use as in vivo glucose biosensors” (Cercacor Laboratories, Inc., priority 2003, dated 2013).
Read-outs that look alike come from different tables or passages of the source.

Columns and labels:
[1] = for response to glucose in vitro: addition of glucose
living cells = assay: Membrane potential (Rh123 fluorescence quenching) to track D-glucose in living cells; assay type: cell-based; settings: glucose 0 to 5 mg/dL (0.28 mM)
Method: The fluorescence quenching is an indication of membrane potential changes within living cells with respect to an increase in glucose concentration, as shown in FIG. 17 (glucose from 0 to 400 mg/dL) and FIG. 18 (glucose from 0 to 66 mg/dL).
The saturation point value was expected to be between 0.0 and 2 mg/dL.

PHK cells = assay: In-vitro detection in PHK cells loaded with reporter, two-photon fluorescent imaging; assay type: cell-based; settings: 50 micromolar reporter; glucose increased to 300 mg/dl; EM 440 nm, 2P excitation 705 nm
Method: PHK cells were loaded with AF-327d reporter, at 50 micromolar concentration, in buffer. Fluorescence was measured using a two-photon fluorescent imaging system at approximately EM 440 nm, and excitation at (2P) 705 nm. Pictures taken 10 minutes apart show a slight change in fluorescence intensity upon increasing the glucose concentration to 300 mg/dl in the cell buffer medium. This is seen clearly, as a 20% decrease in time course of fluorescence.

[2] = Glucose response rate in stirred cuvette, pH 8 phosphate buffer; settings: 100 μL of 300 mg/dL glucose in pH 8 buffer; ex 340 nm, em 440 nm; read every 15 seconds
Method: Arg-327 unprotected batches were prepared. One batch was supplied as a yellow powder and the other as a concentrated solution in deuterated methanol. A small sample of these materials was taken and dissolved in 3 ml of pH 8 phosphate buffer. The fluorescence of these materials was excited at 340 nm and the emission monitored at 440 nm. The fluorescence was monitored every 15 seconds in a stirred cuvette. After about 3 minutes 100 μL of 300 mg/dL glucose in pH 8 buffer was added. […] Similar results were obtained for both samples.

[3] = glucose zero to 300 mg/dL, in vitro

Row | Compound | response to glucose in vitro [1] | increase of fluorescence intensity with glucose [1, 3] | also measured
1 | O=C(/C=C/c1ccc(B(O)O)cc1)c1cc2ccccc2oc1=O [AF-343] | No fluorescence or glucose effect | – | –
2 | O=C(Nc1ccc([N+](=O)[O-])cc1)c1ccc(B(O)O)cc1 [AF-339] | weaker than AF-327 | – | –
3 | COC(=O)c1ccccc1-c1c2ccc(=N)cc-2oc2cc(N)ccc12.Cl [Rh123] | – | – | Rh123 fluorescence with increasing glucose levels (living cells): approximate linear decrease
4 | O=C(Nc1ccc2c(C(F)(F)F)cc(=O)oc2c1)c1ccc(B(O)O)cc1 [AF-327d] | stronger response to glucose than other published compounds | 60% | decrease in time course of fluorescence (PHK cells): 20%; change of absorption spectrum at the excitation wavelength as a function of glucose concentration ([1]; excitation 375 nm): less than 10%; increase of fluorescence intensity with glucose ([1]; glucose range of 200 mg/dL, excitation 375 nm, emission 400-550 nm): at least 40%; glucose response rate (fluorescence after glucose addition) [2]: increased immediately
5 | O=C(Nc1ccc2oc(=O)c3ccccc3c2c1)c1ccc(B(O)O)cc1 [AF-345] | – | 30% | –
